Data reported in the supplement of paper PMC10307832.

Tests used:
Assay in all cases: relative viability (nuclei count vs DMSO), 5 days (fraction); higher = more cells survive
Bexarotene + Pictilisib = compound: C=C(c1ccc(C(=O)O)cc1)c1cc2c(cc1C)C(C)(C)CCC2(C)C [Bexarotene] + CS(=O)(=O)N1CCN(Cc2cc3nc(-c4cccc5[nH]ncc45)nc(N4CCOCC4)c3s2)CC1 [Pictilisib] (partner 1 µM)
In short: (§1)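 Values are medians from duplicate plates. Each reflects relative viability, defined as the nuclei count of treated wells over that of vehicle wells. Lung cancer cell lines in 1536-well plates were pin-tool dosed one day after seeding with one drug alone or with a fixed anchor-drug dose plus five library-drug doses (not always all listed) in √10 steps, then fixed, stained and imaged at 4× after 5 days.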

Bexarotene + Alpelisib = compound: C=C(c1ccc(C(=O)O)cc1)c1cc2c(cc1C)C(C)(C)CCC2(C)C [Bexarotene] + Cc1nc(NC(=O)N2CCC[C@H]2C(N)=O)sc1-c1ccnc(C(C)(C)C(F)(F)F)c1 [Alpelisib] (partner 2 µM)
In short: as §1

Bexarotene + Phenformin = compound: C=C(c1ccc(C(=O)O)cc1)c1cc2c(cc1C)C(C)(C)CCC2(C)C [Bexarotene] + N=C(N)NC(=N)NCCc1ccccc1 [Phenformin] (partner 250 µM)
In short: as §1

Bexarotene + AZD7762 = compound: C=C(c1ccc(C(=O)O)cc1)c1cc2c(cc1C)C(C)(C)CCC2(C)C [Bexarotene] + NC(=O)Nc1cc(-c2cccc(F)c2)sc1C(=O)N[C@H]1CCCNC1 [AZD7762] (partner 0.2 µM)
In short: as §1

Cell Line	relative viability (Bexarotene + Pictilisib; first compound 0.08 µM)	relative viability (Bexarotene + Pictilisib; first compound 0.253 µM)	relative viability (Bexarotene + Pictilisib; first compound 0.8 µM)	relative viability (Bexarotene + Pictilisib; first compound 2.53 µM)	relative viability (Bexarotene + Pictilisib; first compound 8 µM)	relative viability (Bexarotene + Alpelisib; first compound 0.08 µM)	relative viability (Bexarotene + Alpelisib; first compound 0.253 µM)	relative viability (Bexarotene + Alpelisib; first compound 0.8 µM)	relative viability (Bexarotene + Alpelisib; first compound 2.53 µM)	relative viability (Bexarotene + Alpelisib; first compound 8 µM)	relative viability (Bexarotene + Phenformin; first compound 0.08 µM)	relative viability (Bexarotene + Phenformin; first compound 0.253 µM)	relative viability (Bexarotene + Phenformin; first compound 0.8 µM)	relative viability (Bexarotene + Phenformin; first compound 2.53 µM)	relative viability (Bexarotene + Phenformin; first compound 8 µM)	relative viability (Bexarotene + AZD7762; first compound 0.08 µM)	relative viability (Bexarotene + AZD7762; first compound 0.253 µM)	relative viability (Bexarotene + AZD7762; first compound 0.8 µM)	relative viability (Bexarotene + AZD7762; first compound 2.53 µM)	relative viability (Bexarotene + AZD7762; first compound 8 µM)
NCI-H1792	0.244	0.204	0.213	0.252	0.205	0.534	0.697	0.532	0.585	0.413	0.276	0.214	0.166	0.135	0.119	0.64	0.572	0.526	0.593	0.526
NCI-H1793	0.52	0.547	0.508	0.316	0.431	0.956	0.81	0.81	0.727	0.824	0.51	0.386	0.36	0.37	0.358	0.442	0.68	0.511	0.505	0.504
NCI-H1915	1.19	0.989	0.882	0.996	0.917	1.17	1.06	1.04	1	0.95	0.378	0.373	0.382	0.383	0.36	0.707	0.724	0.674	0.653	0.655
NCI-H1944	0.388	0.391	0.336	0.374	0.37	1.08	1.05	0.913	0.954	0.867	0.278	0.238	0.228	0.238	0.218	0.738	0.733	0.749	0.694	0.739
NCI-H1975	0.361	0.347	0.319	0.342	0.386	0.705	0.783	0.665	0.669	0.836	0.492	0.419	0.436	0.446	0.407	0.676	0.775	0.672	0.666	0.668
NCI-H1993	0.803	0.846	0.899	0.866	0.836	0.657	0.645	0.689	0.735	0.684	0.527	0.553	0.572	0.576	0.557	0.805	0.83	0.618	0.851	0.636
NCI-H2085	0.449	0.461	0.431	0.386	0.476	0.892	0.924	0.873	0.855	0.824	0.759	0.646	0.531	0.678	0.718	0.868	0.92	0.803	0.789	0.815
NCI-H2087	1.03	0.941	0.91	0.786	0.818	1.27	1.11	1.08	0.997	1.05	0.527	0.475	0.451	0.433	0.435	1.33	1.3	1.2	1.35	1.16
NCI-H2126	0.558	0.512	0.462	0.514	0.519	0.8	0.81	0.698	0.826	0.847	0.529	0.535	0.526	0.56	0.55	1.07	0.971	0.916	0.994	1.02
NCI-H2170	0.352	0.307	0.302	0.271	0.268	0.762	0.777	0.782	0.759	0.66	0.457	0.403	0.388	0.357	0.361	0.877	0.796	0.812	0.775	0.735
NCI-H2347	0.597	0.62	0.461	0.743	0.605	1.05	1.03	0.748	1.01	1.11	0.361	0.434		0.376	0.353	0.794	0.86	0.688	0.691	0.754
NCI-H2405	0.58	0.455	0.326	0.538	0.523	0.935	0.915	0.52	0.806	0.864	0.448	0.443	0.296	0.408	0.36	0.887	0.681	0.711	0.761	0.801
NCI-H3122	0.82	0.821	0.647	0.855	0.802	0.782	0.8	0.784	0.786	0.847	0.379	0.367	0.359	0.385	0.372	1.05	1	0.944	0.968	1.13
PC-3 [JPC-3]	0.868	0.749	0.519	0.656	0.666	1.06	1.08	0.815	0.984	0.932	0.489	0.514	0.448	0.52	0.505	0.958	0.705	0.785	0.651	0.709
PC-14	0.663	0.724	0.7	0.704	0.565	1.02	1.06	0.9	0.957	0.921	0.611	0.61	0.523	0.435	0.522	0.357	0.436	0.415	0.299	0.338
RERF-LC-KJ	0.492	0.592	0.503	0.387	0.57	0.712	0.784	0.723	0.715	0.77	0.407	0.405	0.402	0.364	0.426	0.97	0.918	0.873	1.03	0.849
